This note sets out measurements from patent publication US20090221559A1 (priority 2005, published 2009).

Assay [1] has as its target T1, HCV NS5B polymerase (His-tagged, C-terminal 21 amino acid deleted NS5B, HC-J4) (Hepatitis C virus genotype 1b, UniProt O92972).
T1 construct: The cDNA encoding NS5B amino acid 1-570 (HC-J4, genotype 1b); His tag (His6, from pET-21b) (C); made in house; host or cells: E. coli BL21 (DE3)
The experiment in a line: NS5b polymerase assay (biochemical RdRp assay, 3H-GTP incorporation, SPA beads). The settings on record: NS5B Polymerase Assay IC50, 200 nM enzyme, 3H-GTP incorporation, 2 h at 25° C. Also on record: species or system HCV genotype 1b. The procedure, abridged:
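3H-GTP incorporation into newly made RNA was captured on SPA beads added in EDTA after 2 h at 25 °C. Compounds in DMSO met preformed enzyme–template complex (200 nM truncated His-NS5B, HC-J4 1b; biotin-oligo(rG13)/poly(rC)) for 15 min at RT, then 600 nM GTP, 5 mM MgCl2, Tris pH 7.5 started polymerization.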

The subject of assay [2] is HCV replicon RNA replication in Huh-7 luc/neo (Huh-Luc) cells. Nature of the assay: HCV replicon assay (stable replicon cell reporter assay, luciferase read-out). The assay is classed as cell-based, HCV type 1b. Particulars: Hepatitis C virus, Huh-7, 72 h, read-out: Replicon Assay EC50, Huh-Luc cells, three days incubation, luciferase activity. The procedure, abridged: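 Three-day compound exposure used Huh-Luc cells, which harbour an autonomously replicating genotype 1b NS3-NS5B replicon expressing luciferase and neo^R. Luciferase signal served as the replication read-out, and dose-response curves came from several concentrations per compound.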

Usually IC50 stands for the concentration that gives 50% inhibition. Broadly, the EC50 is the midpoint of the concentration-response curve.

T1 sequence (O92972 2417-3000, looked up, stated change not applied): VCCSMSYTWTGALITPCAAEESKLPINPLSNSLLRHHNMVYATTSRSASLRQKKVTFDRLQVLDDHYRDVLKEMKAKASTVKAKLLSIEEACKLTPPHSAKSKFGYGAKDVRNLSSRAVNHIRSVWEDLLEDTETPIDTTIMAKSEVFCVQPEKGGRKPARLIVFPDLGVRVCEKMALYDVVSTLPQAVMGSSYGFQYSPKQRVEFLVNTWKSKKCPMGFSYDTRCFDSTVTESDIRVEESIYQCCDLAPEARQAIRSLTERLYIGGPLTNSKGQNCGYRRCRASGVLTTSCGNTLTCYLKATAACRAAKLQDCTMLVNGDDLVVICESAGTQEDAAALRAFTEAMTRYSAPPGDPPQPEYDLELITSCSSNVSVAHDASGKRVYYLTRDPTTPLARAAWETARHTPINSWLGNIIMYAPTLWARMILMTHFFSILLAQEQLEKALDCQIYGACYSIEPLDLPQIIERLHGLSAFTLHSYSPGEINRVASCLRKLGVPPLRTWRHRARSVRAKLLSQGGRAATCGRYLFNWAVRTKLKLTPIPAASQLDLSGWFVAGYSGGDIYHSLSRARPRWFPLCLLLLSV

The compound `CCCOc1ccc(C2C3=C(CC(C)(C)CC3=O)Nc3ccccc3N2C(C)=O)cc1OC` (stereo not shown) [compound 129] gave an IC50 in assay [1] of more than 42.7 µM. The EC50 in assay [2] is more than 32 µM.

`CCCOc1ccccc1C1C2=C(CC(C)(C)CC2=O)Nc2ccccc2N1C(C)=O` (stereo not shown) [compound 130] showed an IC50 in assay [1] of more than 42.7 µM. The EC50 in assay [2] is more than 32 µM.

With `CCN(CC)c1ccc(C2C3=C(CC(C)(C)CC3=O)Nc3ccccc3N2C(C)=O)cc1` (stereo not shown) [compound 131], the IC50 in assay [1] is more than 42.7 µM. For the same compound, the EC50 in assay [2] is more than 32 µM.

`COc1ccc(C2C3=C(CC(C)(C)CC3=O)Nc3ccccc3N2C(C)=O)c(OC)c1` (stereo not shown) [compound 132] yielded an IC50 in assay [1] of more than 42.7 µM. Also, the EC50 in assay [2] is 12.8 µM.

In the case of `CC(=O)N1c2ccccc2NC2=C(C(=O)CC(C)(C)C2)C1c1cc(Cl)cc(Cl)c1` (stereo not shown) [compound 133, 10-acetyl-11-[3,5-dichlorophenyl]-3,3-dimethyl-2,3,4,5,10,11-hexahydro-1H-dibenzo[b,e][1,4]diazepin-1-one], the IC50 in assay [1] is more than 133 µM. Besides, in assay [2], the EC50 stood at 11 µM.

The compound `CC(=O)N1c2ccccc2NC2=C(C(=O)CC(C)(C)C2)C1c1ccc(Oc2ccccc2)cc1` (stereo not shown) [compound 134, 10-acetyl-11-(4-phenoxyphenyl)-3,3-dimethyl-2,3,4,5,10,11-hexahydro-1H-dibenzo[b,e][1,4]diazepin-1-one] displayed an IC50 in assay [1] of 47.3 µM. Besides, the EC50 in assay [2] is 4.64 µM.

Consider `CC(=O)N1c2ccccc2NC2=C(C(=O)CC(C)(C)C2)C1c1cccc(Oc2ccccc2)c1` (stereo not shown) [compound 135], for which half-maximal inhibition in assay [1] (IC50) required 54.7 µM. Moreover, the EC50 in assay [2] was determined as 2.47 µM.

`CC(=O)N1c2ccccc2NC2=C(C(=O)CC(C)(C)C2)C1c1cccc(OCc2ccccc2)c1` (stereo not shown) [compound 136, 10-acetyl-11-(3-benzyloxyphenyl)-3,3-dimethyl-2,3,4,5,10,11-hexahydro-1H-dibenzo[b,e][1,4]diazepin-1-one] displayed an IC50 in assay [1] of more than 133 µM. For the same compound, the EC50 in assay [2] turned out to be 9.51 µM.

`CC(=O)N1c2ccccc2NC2=C(C(=O)CC(C)(C)C2)C1c1ccc(O)cc1` (stereo not shown) [compound 137, 10-acetyl-11-(4-hydroxyphenyl)-3,3-dimethyl-2,3,4,5,10,11-hexahydro-1H-dibenzo[b,e][1,4]diazepin-1-one] showed an IC50 in assay [1] of more than 133 µM. The EC50 in assay [2] is more than 100 µM.

`CC(=O)N1c2ccccc2NC2=C(C(=O)CC(C)(C)C2)C1c1cc(Cl)ccc1Cl` (stereo not shown) [compound 138, 10-acetyl-11-[2,5-dichlorophenyl]-3,3-dimethyl-2,3,4,5,10,11-hexahydro-1H-dibenzo[b,e][1,4]diazepin-1-one] returned an IC50 in assay [1] of more than 133 µM. Further, the EC50 in assay [2] amounted to 26.7 µM.

On to `CC(=O)N1c2ccccc2NC2=C(C(=O)CC(C)(C)C2)C1c1ccc(OCc2cccnc2)cc1` (stereo not shown) [compound 140, 10-acetyl-3,3-dimethyl-11-[4-(3-pyridylmethoxy)phenyl]-2,3,4,5,10,11-hexahydro-1H-dibenzo[b,e][1,4]diazepin-1-one], for which, in assay [1], the IC50 stood at 19.1 µM. Moreover, the EC50 in assay [2] came to 7.23 µM.

`CC(=O)N1c2ccccc2NC2=C(C(=O)CC(C)(C)C2)C1c1ccc(OCc2ccccn2)cc1` (stereo not shown) [compound 141, 10-acetyl-3,3-dimethyl-11-[4-(2-pyridylmethoxy)phenyl]-2,3,4,5,10,11-hexahydro-1H-dibenzo[b,e][1,4]diazepin-1-one]: inhibition in assay [1] was half-maximal at 7.91 µM (IC50). In assay [2], the EC50 came out at 16.3 µM.

For the compound `CC(=O)N1c2ccccc2NC2=C(C(=O)CC(C)(C)C2)C1c1cc(Cl)c(OCc2ccccc2)c(Cl)c1` (stereo not shown) [compound 143, 10-acetyl-11-[4-benzyloxy-3,5-dichlorophenyl]-3,3-dimethyl-2,3,4,5,10,11-hexahydro-1H-dibenzo[b,e][1,4]diazepin-1-one], in assay [1], the IC50 turned out to be 16 µM. Besides, the EC50 in assay [2] is 6.3 µM.

In turn, `CC(=O)N1c2ccccc2NC2=C(C(=O)CC(C)(C)C2)C1c1ccc(OCc2ccccc2)cc1OCc1ccccc1` (stereo not shown) [compound 144, 10-acetyl-11-[2,4-dibenzyloxyphenyl]-3,3-dimethyl-2,3,4,5,10,11-hexahydro-1H-dibenzo[b,e][1,4]diazepin-1-one] came in with an IC50 in assay [1] of 23 µM. In assay [2], the EC50 stood at 3.1 µM.
